Data from ChEMBL document CHEMBL3885861, “Open TG-GATES”.

Species on record: Rattus norvegicus
Test: Open TG-GATES - Regimen: Daily Repeat
Assay type: toxicity, organism-based, Sprague-Dawley
Set-up: regimen Daily Repeat, gender Male, age 6 weeks
Conditions: in vivo, po, route gavage; for APTT / Bas / Eos / Fbg / Hb / Ht / Lym / MCH / MCHC / MCV / Mono / Neu / PT / Plat / RBC / Ret / WBC: tissue Blood; for KIDNEY_L / KIDNEY_R / KIDNEY_TOTAL: tissue Kidney; for LIVER: tissue Liver; for A/G / ALP / ALT / AST / BUN / CRE / Ca / Cl / DBIL / GLC / IP / K / LDH / Na / PL / RALB / TBIL / TC / TG / TP / gamma-GTP: tissue Plasma
[1] = 300 mg/kg, 72 h, dose level Middle, time 3 day
[2] = 300 mg/kg, […], dose level Middle, time 7 day
[3] = 300 mg/kg, […], dose level Middle, time 14 day
[4] = 300 mg/kg, […], dose level Middle, time 28 day
[5] = 1000 mg/kg, 72 h, dose level High, time 3 day
[6] = 1000 mg/kg, […], dose level High, time 7 day
[7] = 1000 mg/kg, […], dose level High, time 14 day
[8] = 1000 mg/kg, […], dose level High, time 28 day

## CCN1CCCC1CNC(=O)c1cc(S(N)(=O)=O)ccc1OC (centres undefined) [SULPIRIDE]
[1]
  TERMINAL_BW: 234.7 g
  APTT: 16.7 s
  Bas: 0%
  Eos: 1%
  Fbg: 278.2 mg/dL
  Hb: 13.4 g/dL
  Ht: 40.9%
  Lym: 78.8%
  MCH: 20.6 pg
  MCHC: 32.8%
  MCV: 62.7 fL
  Mono: 3.4%
  Neu: 16.2%
  PT: 13.1 s
  Plat: 118.8 x10_4/uL
  RBC: 653.4 x10_4/ul
  Ret: 6.5%
  WBC: 94.6 x10_2/uL
  KIDNEY_L: 1 g
  KIDNEY_R: 1 g
  KIDNEY_TOTAL: 2.1 g
  LIVER: 11.7 g
  A/G: 0.9
  ALP: 1582.2 IU/L
  ALT: 44 IU/L
  AST: 65.8 IU/L
  BUN: 14.6 mg/dL
  CRE: 0.2 mg/dL
  Ca: 11.1 mg/dL
  Cl: 103.2 meq/L
  DBIL: 0.01 mg/dL
  GLC: 182 mg/dL
  IP: 8 mg/dL
  K: 4.4 meq/L
  LDH: 78.2 IU/L
  Na: 139.6 meq/L
  PL: 147.8 mg/dL
  RALB: 2.7 g/dL
  TBIL: 0.056 mg/dL
  TC: 78.4 mg/dL
  TG: 92.8 mg/dL
  TP: 5.7 g/dL
  gamma-GTP: 1 IU/L
[2]
  TERMINAL_BW: 265.3 g
  APTT: 16.9 s
  Bas: 0%
  Eos: 1%
  Fbg: 297.2 mg/dL
  Hb: 13.8 g/dL
  Ht: 41.8%
  Lym: 81.8%
  MCH: 20 pg
  MCHC: 33%
  MCV: 60.4 fL
  Mono: 2.2%
  Neu: 14.4%
  PT: 13.1 s
  Plat: 123.9 x10_4/uL
  RBC: 692.4 x10_4/ul
  Ret: 4.9%
  WBC: 113 x10_2/uL
  KIDNEY_L: 1.1 g
  KIDNEY_R: 1.1 g
  KIDNEY_TOTAL: 2.1 g
  LIVER: 12.5 g
  A/G: 0.8
  ALP: 1497.6 IU/L
  ALT: 46.8 IU/L
  AST: 65.8 IU/L
  BUN: 17 mg/dL
  CRE: 0.2 mg/dL
  Ca: 11 mg/dL
  Cl: 104.2 meq/L
  DBIL: 0.01 mg/dL
  GLC: 182.2 mg/dL
  IP: 8.1 mg/dL
  K: 4.2 meq/L
  LDH: 54.4 IU/L
  Na: 141.6 meq/L
  PL: 143 mg/dL
  RALB: 2.6 g/dL
  TBIL: 0.052 mg/dL
  TC: 70.4 mg/dL
  TG: 114.4 mg/dL
  TP: 5.8 g/dL
  gamma-GTP: 1 IU/L
[3]
  TERMINAL_BW: 329.3 g
  APTT: 16.8 s
  Bas: 0.2%
  Eos: 1%
  Fbg: 295.2 mg/dL
  Hb: 14.7 g/dL
  Ht: 44.1%
  Lym: 78.4%
  MCH: 20 pg
  MCHC: 33.4%
  MCV: 60 fL
  Mono: 2.2%
  Neu: 17.2%
  PT: 13.2 s
  Plat: 121.1 x10_4/uL
  RBC: 736 x10_4/ul
  Ret: 4.1%
  WBC: 102.3 x10_2/uL
  KIDNEY_L: 1.3 g
  KIDNEY_R: 1.2 g
  KIDNEY_TOTAL: 2.5 g
  LIVER: 14.2 g
  A/G: 0.9
  ALP: 1350 IU/L
  ALT: 37.4 IU/L
  AST: 62.8 IU/L
  BUN: 16 mg/dL
  CRE: 0.2 mg/dL
  Ca: 11.1 mg/dL
  Cl: 103 meq/L
  DBIL: 0.014 mg/dL
  GLC: 188.8 mg/dL
  IP: 7.8 mg/dL
  K: 3.9 meq/L
  LDH: 50.6 IU/L
  Na: 140.6 meq/L
  PL: 145.2 mg/dL
  RALB: 2.7 g/dL
  TBIL: 0.052 mg/dL
  TC: 71.8 mg/dL
  TG: 109 mg/dL
  TP: 5.8 g/dL
  gamma-GTP: 1 IU/L
[4]
  TERMINAL_BW: 375.2 g
  APTT: 17.4 s
  Bas: 0.2%
  Eos: 1.2%
  Fbg: 265 mg/dL
  Hb: 15.8 g/dL
  Ht: 45.8%
  Lym: 76.4%
  MCH: 19.4 pg
  MCHC: 34.5%
  MCV: 56.1 fL
  Mono: 1.8%
  Neu: 20%
  PT: 13.4 s
  Plat: 114.4 x10_4/uL
  RBC: 817 x10_4/ul
  Ret: 2.1%
  WBC: 109.3 x10_2/uL
  KIDNEY_L: 1.3 g
  KIDNEY_R: 1.4 g
  KIDNEY_TOTAL: 2.7 g
  LIVER: 14 g
  A/G: 0.8
  ALP: 1073.6 IU/L
  ALT: 43.8 IU/L
  AST: 65.2 IU/L
  BUN: 17 mg/dL
  CRE: 0.2 mg/dL
  Ca: 10.6 mg/dL
  Cl: 105.2 meq/L
  DBIL: 0.006 mg/dL
  GLC: 184.4 mg/dL
  IP: 6.5 mg/dL
  K: 3.8 meq/L
  LDH: 56.2 IU/L
  Na: 142 meq/L
  PL: 125.4 mg/dL
  RALB: 2.7 g/dL
  TBIL: 0.062 mg/dL
  TC: 63.2 mg/dL
  TG: 84.4 mg/dL
  TP: 6.1 g/dL
  gamma-GTP: 1 IU/L
[5]
  TERMINAL_BW: 230.5 g
  APTT: 16.8 s
  Bas: 0%
  Eos: 1.4%
  Fbg: 274.2 mg/dL
  Hb: 14.1 g/dL
  Ht: 42.6%
  Lym: 74.8%
  MCH: 20.7 pg
  MCHC: 33.1%
  MCV: 62.5 fL
  Mono: 2.8%
  Neu: 20.6%
  PT: 13.2 s
  Plat: 128.6 x10_4/uL
  RBC: 682.6 x10_4/ul
  Ret: 4.8%
  WBC: 104.1 x10_2/uL
  KIDNEY_L: 1 g
  KIDNEY_R: 1 g
  KIDNEY_TOTAL: 2 g
  LIVER: 11.1 g
  A/G: 0.8
  ALP: 1652 IU/L
  ALT: 49.2 IU/L
  AST: 62.4 IU/L
  BUN: 16.4 mg/dL
  CRE: 0.2 mg/dL
  Ca: 11.3 mg/dL
  Cl: 103.4 meq/L
  DBIL: 0.01 mg/dL
  GLC: 174.6 mg/dL
  IP: 8.3 mg/dL
  K: 4.5 meq/L
  LDH: 73.8 IU/L
  Na: 140 meq/L
  PL: 161 mg/dL
  RALB: 2.7 g/dL
  TBIL: 0.056 mg/dL
  TC: 82.2 mg/dL
  TG: 112 mg/dL
  TP: 5.7 g/dL
  gamma-GTP: 1 IU/L
[6]
  TERMINAL_BW: 262.7 g
  APTT: 17.8 s
  Bas: 0%
  Eos: 1.2%
  Fbg: 288 mg/dL
  Hb: 14 g/dL
  Ht: 42.2%
  Lym: 76.6%
  MCH: 20.8 pg
  MCHC: 33.3%
  MCV: 62.6 fL
  Mono: 3.2%
  Neu: 18.6%
  PT: 13.3 s
  Plat: 125.3 x10_4/uL
  RBC: 673.8 x10_4/ul
  Ret: 4.7%
  WBC: 87.1 x10_2/uL
  KIDNEY_L: 1.1 g
  KIDNEY_R: 1.2 g
  KIDNEY_TOTAL: 2.3 g
  LIVER: 11.9 g
  A/G: 0.9
  ALP: 1461.2 IU/L
  ALT: 55 IU/L
  AST: 74.2 IU/L
  BUN: 16.4 mg/dL
  CRE: 0.2 mg/dL
  Ca: 11 mg/dL
  Cl: 103.2 meq/L
  DBIL: 0.006 mg/dL
  GLC: 171.6 mg/dL
  IP: 8 mg/dL
  K: 4.3 meq/L
  LDH: 62 IU/L
  Na: 141 meq/L
  PL: 146 mg/dL
  RALB: 2.7 g/dL
  TBIL: 0.05 mg/dL
  TC: 72.6 mg/dL
  TG: 94 mg/dL
  TP: 5.7 g/dL
  gamma-GTP: 1 IU/L
[7]
  TERMINAL_BW: 307.6 g
  APTT: 16.8 s
  Bas: 0.2%
  Eos: 1%
  Fbg: 271 mg/dL
  Hb: 14.9 g/dL
  Ht: 44.3%
  Lym: 72.8%
  MCH: 20.1 pg
  MCHC: 33.6%
  MCV: 59.8 fL
  Mono: 2.2%
  Neu: 23%
  PT: 13.2 s
  Plat: 114.6 x10_4/uL
  RBC: 742 x10_4/ul
  Ret: 3.8%
  WBC: 103.9 x10_2/uL
  KIDNEY_L: 1.2 g
  KIDNEY_R: 1.2 g
  KIDNEY_TOTAL: 2.3 g
  LIVER: 12.6 g
  A/G: 0.9
  ALP: 1425.6 IU/L
  ALT: 41.8 IU/L
  AST: 68.2 IU/L
  BUN: 16.8 mg/dL
  CRE: 0.2 mg/dL
  Ca: 11 mg/dL
  Cl: 102.6 meq/L
  DBIL: 0.008 mg/dL
  GLC: 181 mg/dL
  IP: 7.9 mg/dL
  K: 3.9 meq/L
  LDH: 54 IU/L
  Na: 140.6 meq/L
  PL: 148.4 mg/dL
  RALB: 2.7 g/dL
  TBIL: 0.056 mg/dL
  TC: 80.8 mg/dL
  TG: 83.4 mg/dL
  TP: 5.9 g/dL
  gamma-GTP: 1 IU/L
[8]
  TERMINAL_BW: 370.8 g
  APTT: 17.8 s
  Bas: 0%
  Eos: 1.6%
  Fbg: 278.4 mg/dL
  Hb: 15.8 g/dL
  Ht: 45.5%
  Lym: 80%
  MCH: 19.3 pg
  MCHC: 34.7%
  MCV: 55.5 fL
  Mono: 2%
  Neu: 15%
  PT: 13.3 s
  Plat: 111.2 x10_4/uL
  RBC: 818.8 x10_4/ul
  Ret: 2.5%
  WBC: 133.5 x10_2/uL
  KIDNEY_L: 1.2 g
  KIDNEY_R: 1.3 g
  KIDNEY_TOTAL: 2.5 g
  LIVER: 13.4 g
  A/G: 0.8
  ALP: 1094.8 IU/L
  ALT: 42.6 IU/L
  AST: 70.4 IU/L
  BUN: 18 mg/dL
  CRE: 0.3 mg/dL
  Ca: 10.6 mg/dL
  Cl: 103 meq/L
  DBIL: 0.012 mg/dL
  GLC: 169 mg/dL
  IP: 7.2 mg/dL
  K: 3.9 meq/L
  LDH: 55.6 IU/L
  Na: 141.8 meq/L
  PL: 136.2 mg/dL
  RALB: 2.8 g/dL
  TBIL: 0.062 mg/dL
  TC: 66.2 mg/dL
  TG: 87.2 mg/dL
  TP: 6.3 g/dL
  gamma-GTP: 1 IU/L
